ChEMBL document CHEMBL2176966, “Discovery of 6,7-dihydro-5H-pyrrolo[2,3-a]pyrimidines as orally available G protein-coupled receptor 119 agonists” (J Med Chem, 2012)
The source made the active and inactive calls. No cut-off for these calls is given here.

test system: Rattus norvegicus; assay: Dose normalized AUC (0 to 24 hrs) in rat at 30 mg/kg; format: ADME, organism-based; set-up: dose 30 mg/kg; details: in vivo

| AUC/dose | SMILES |
| --- | --- |
| > 1 µg·h/mL | CC(C)OC(=O)N1CCC(Oc2ncnc3c2CCN3c2ccc(C#N)cc2F)CC1 |

target: T1, Glucose-dependent insulinotropic receptor (Homo sapiens, UniProt Q8TDV5); assay: Agonist activity at human GPR119 receptor expressed in CHO-K1 cells co-expressing 6CRE-luciferase gene after 5 hrs by luciferase reporter gene assay; format: functional, cell-based; details: cho-k1
T1 sequence (Q8TDV5 whole entry): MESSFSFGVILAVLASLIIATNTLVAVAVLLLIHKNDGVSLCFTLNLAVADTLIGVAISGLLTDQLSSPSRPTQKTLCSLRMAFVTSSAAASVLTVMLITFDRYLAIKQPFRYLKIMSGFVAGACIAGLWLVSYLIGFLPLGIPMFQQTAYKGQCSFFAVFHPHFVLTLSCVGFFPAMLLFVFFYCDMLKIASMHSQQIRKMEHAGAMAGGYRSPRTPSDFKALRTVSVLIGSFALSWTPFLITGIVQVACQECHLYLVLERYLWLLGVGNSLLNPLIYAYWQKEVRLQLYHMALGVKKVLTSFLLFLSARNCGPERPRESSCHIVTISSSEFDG

| pEC50 | SMILES |
| --- | --- |
| < 5 | CC(C)OC(=O)N1CCC(Oc2ncnc3c2CC(C)N3c2ccc(S(C)(=O)=O)cc2F)CC1 (single isomer, unassigned; (+)) |

same assay, conditions: read-out: EC50

| EC50 | SMILES |
| --- | --- |
| 200 nM | O=[N+]([O-])c1c(Nc2ccc(-n3cncn3)cc2)ncnc1N1CCC(Sc2ccccn2)CC1 |

same assay, conditions: read-out: pEC50 (converted)

| EC50 | SMILES |
| --- | --- |
| 50.1 nM | CC(C)c1noc(N2CCC(O)CC2)n1 |
| 31.6 nM | CCSC(=O)N1CCC(Oc2ncnc3c2CCN3c2ccc(S(C)(=O)=O)cc2F)CC1 |
| 501 nM | CC(C)OC(=O)N1CCC(Oc2ncnc3c2CCN3c2ccc(S(=O)(=O)N(C)C)cc2)CC1 |
| 398 nM | CSc1ccc(N2CCc3c(OC4CCN(C(=O)OC(C)C)CC4)ncnc32)c(F)c1 |
| 501 nM | CS(=O)(=O)c1ccc(N2CCc3c(OC4CCN(C(=O)OCCF)CC4)ncnc32)c(F)c1 |
| 39.8 nM | CC(C)(C)COC(=O)N1CCC(Oc2ncnc3c2CCN3c2ccc(S(C)(=O)=O)cc2F)CC1 |
| 20 nM | CC(C)(C)OC(=O)N1CCC(Oc2ncnc3c2CCN3c2ccc(S(C)(=O)=O)cc2F)CC1 |
| 1000 nM | CC(C)OC(=O)N1CCC(Oc2cccc3c2CCN3c2ccc(S(C)(=O)=O)cc2F)CC1 |
| 398 nM | CC(C)OC(=O)N1CCC(Oc2ncnc3c2CCN3c2ccc(C#N)c(F)c2)CC1 |
| 2000 nM | CS(=O)(=O)c1ccc(N2CCc3c(OC4CCN(C5=NCCCN5)CC4)ncnc32)c(F)c1 |
| 398 nM | CN(C)S(=O)(=O)N1CCC(Oc2ncnc3c2CCN3c2ccc(S(C)(=O)=O)cc2F)CC1 |
| 126 nM | CC(C)OC(=O)N1CCC(Oc2ncnc3c2CCN3c2ccc(S(C)(=O)=O)cn2)CC1 |
| 251 nM | Cc1nc(OC2CCN(c3nc(C(C)C)no3)CC2)c2c(n1)N(c1ccc(S(C)(=O)=O)cc1F)CC2 |
| 631 nM | CC(C)OC(=O)N1CCC(Oc2ncnc3c2CCN3c2ccc([S@@+](C)[O-])cc2F)CC1 |
| 1260 nM | CC(C)S(=O)(=O)N1CCC(Oc2ncnc3c2CCN3c2ccc(S(C)(=O)=O)cc2F)CC1 |
| 316 nM | COCCOC(=O)N1CCC(Oc2ncnc3c2CCN3c2ccc(S(C)(=O)=O)cc2F)CC1 |
| 25.1 nM | CC(C)COC(=O)N1CCC(Oc2ncnc3c2CCN3c2ccc(S(C)(=O)=O)cc2F)CC1 |
| 631 nM | CC(C)OC(=O)N1CCC(N(C)c2ncnc3c2CCN3c2ccc(S(C)(=O)=O)cc2F)CC1 |
| 79.4 nM | CC(C)OC(=O)N1CCC(Sc2ncnc3c2CCN3c2ccc(S(C)(=O)=O)cc2F)CC1 |
| 126 nM | Cc1nc(OC2CCN(C(=O)OC(C)(C)C)CC2)c2c(n1)N(c1ccc(S(C)(=O)=O)cc1F)CC2 |
| 2000 nM | CC(C)OC(=O)N1CCC(Nc2ncnc3c2CCN3c2ccc(S(C)(=O)=O)cc2F)CC1 |
| > 10000 nM | CC(C)OC(=O)N1CCC(Oc2ncnc3c2CC(C)N3c2ccc(S(C)(=O)=O)cc2F)CC1 (single isomer, unassigned; (-)) |
| 100 nM | Cc1cc(S(C)(=O)=O)ccc1N1CCc2c(OC3CCN(C(=O)OC(C)C)CC3)ncnc21 |
| 794 nM | CC(C)OC(=O)N1CCC(Oc2ncnc3c2CCN3c2ccc(C#N)cn2)CC1 |
| > 10000 nM | CC(C)OC(=O)N1CCC(S(=O)(=O)c2ncnc3c2CCN3c2ccc(S(C)(=O)=O)cc2F)CC1 |
| 10 nM | CC(C)SC(=O)N1CCC(Oc2ncnc3c2CCN3c2ccc(S(C)(=O)=O)cc2F)CC1 |

| EC50 | SMILES |
| --- | --- |
| 126 nM | CC(C)OC(=O)N1CCC(Oc2ncnc3c2CCN3c2ccc(S(C)(=O)=O)cc2)CC1 |
| 158 nM | CC(C)OC(=O)N1CCC(Oc2ncnc3c2CCN3c2ccc(-c3cccn3C)cc2F)CC1 |
| 316 nM | N#CN1CCC(O)CC1 |
| 100 nM | Cc1nc(OC2CCN(C(=O)OC(C)C)CC2)c2c(n1)N(c1ccc(S(C)(=O)=O)cc1F)CC2 |
| 316 nM | COC(=O)N1CCC(Oc2ncnc3c2CCN3c2ccc(S(C)(=O)=O)cc2F)CC1 |
| 158 nM | CC(C)OC(=O)N1CCC(Oc2ncnc3c2CCN3c2ccc(S(C)(=O)=O)c(F)c2)CC1 |
| 12.6 nM | CS(=O)(=O)c1ccc(N2CCc3c(OC4CCN(C(=S)Sc5ccccc5)CC4)ncnc32)c(F)c1 |
| > 10000 nM | CC(C)OC(=O)N1CCC(Oc2ncnc3c2CCN3c2ccc(F)cn2)CC1 |
| 251 nM | CC(C)OC(=O)N1CCC(Oc2ncnc3c2CCN3c2ccc(S(C)(=O)=O)nc2)CC1 |
| 50.1 nM | CC(C)OC(=O)N1CCC(Oc2ncnc3c2CCN3c2ccc([S@+](C)[O-])cc2F)CC1 |
| 1580 nM | CCS(=O)(=O)N1CCC(Oc2ncnc3c2CCN3c2ccc(S(C)(=O)=O)cc2F)CC1 |
| 794 nM | CC(C)OC(=O)N1CCC(Oc2nc(N)nc3c2CCN3c2ccc(S(C)(=O)=O)cc2F)CC1 |
| 158 nM | CC(C)(C)OC(=O)N1CCC(Oc2cccc3c2CCN3c2ccc(S(C)(=O)=O)cc2)CC1 |
| 50.1 nM | CCCCOC(=O)N1CCC(Oc2ncnc3c2CCN3c2ccc(S(C)(=O)=O)cc2F)CC1 |
| 79.4 nM | CCCOC(=O)N1CCC(Oc2ncnc3c2CCN3c2ccc(S(C)(=O)=O)cc2F)CC1 |
| > 10000 nM | CNc1nc(OC2CCN(C(=O)OC(C)C)CC2)c2c(n1)N(c1ccc(S(C)(=O)=O)cc1F)CC2 |
| > 10000 nM | CCN(CC)C(=O)CN1CCC(Oc2ncnc3c2CCN3c2ccc(S(C)(=O)=O)cc2F)CC1 |
| 79.4 nM | CC(C)OC(=O)N1CCC(Oc2ncnc3c2CCN3c2ccc(-c3nccs3)cc2F)CC1 |
| 63.1 nM | CC(C)OC(=O)N1CCC(Oc2ncnc3c2CCN3c2ccc(C#N)cc2F)CC1 |
| 501 nM | CC(C)OC(=O)N1CCC(Oc2cccc3c2CCN3c2ccc(S(C)(=O)=O)cc2)CC1 |
| 251 nM | CCOC(=O)N1CCC(Oc2ncnc3c2CCN3c2ccc(S(C)(=O)=O)cc2F)CC1 |
| 251 nM | CSC(=O)N1CCC(Oc2ncnc3c2CCN3c2ccc(S(C)(=O)=O)cc2F)CC1 |
| 631 nM | CC(C)(C)OC(=O)N1CCC(Oc2cccc3c2ccn3-c2ccc(S(C)(=O)=O)cc2)CC1 |
| 79.4 nM | CC(C)c1noc(N2CCC(Oc3ncnc4c3CCN4c3ccc(S(C)(=O)=O)cc3F)CC2)n1 |
| > 10000 nM | Cc1ncccc1N1CCc2c(OC3CCN(C(=O)OC(C)C)CC3)ncnc21 |

test system: Rattus norvegicus; assay: Antihyperglycemic activity in Wistar rat assessed as glucose excursion curve at 10 mg/kg, po by glucose tolerance test; format: functional; details: not given

| SMILES | Activity |
| --- | --- |
| N#C[C@@H]1CCCN1C(=O)CNC12CC3CC(CC(O)(C3)C1)C2 | Active |

test system: not listed separately; assay: AUC (0 to 24 hrs) in rat at 10 mg/kg; format: ADME, organism-based; set-up: time < 24 hr, dose 10 mg/kg; details: plasma

| AUC(0-t) at 24 h | SMILES |
| --- | --- |
| 500 ng·h/mL | CC(C)c1noc(N2CCC(Oc3ncnc4c3CCN4c3ccc(S(C)(=O)=O)cc3F)CC2)n1 |

test system: Mus musculus; assay: Dose normalized AUC (0 to 24 hrs) in mouse at 30 mg/kg; format: ADME, organism-based; set-up: dose 30 mg/kg; details: in vivo

| AUC/dose | SMILES |
| --- | --- |
| 0.04 µg·h/mL | CCc1cnc(N2CCC(Oc3ncnc4c3CCN4c3ccc(S(C)(=O)=O)cc3F)CC2)nc1 |
